From PubChem BioAssay AID1963843 (Molecular Pharmacology Branch, DTP, NCI, 2024)

System: 616215-338-R-J1-PDC complex spheroid viability
Experiment: Anticancer human tumor 616215-338-R-J1-PDC patient-derived colon adenocarcinoma cell line growth inhibition [POLQ]
Details: for IC50: curve of first compound; for viability, T/C: stronger effect = lower value
Description: Multicellular complex tumor spheroid response to Polymerase (POL) inhibitors (novobiocin, ART-558, RP6685) in combination with a variety of drugs and investigational agents in selected tumor cell lines
The POL inhibitors (novobiocin, ART-558, and RP6685) were evaluated both individually and in combination with standard of care and investigational anticancer small molecules within a complex spheroid model of solid tumors. . Complex spheroids include a stromal component modeled by human endothelial cells (HUVEC) and fibroblasts modeled by human mesenchymal stem cells (MSCs). The concentration ranges selected for each drug and investigational agent were based upon clinically achievable concentrations if the clinical Cmax of the agent was known.
Compounds. The drugs and investigational agents: novobiocin (NSC847541), ART-558 (NSC835418), RP-6685 (NSC848927), peposertib (NSC802822), ceralasertib (NSC780249), elimusertib (NSC800525), camonsertib (NSC841442), AZD-1390 (NSC803789), olaparib (NSC753686), talazoparib (NSC767125), rucaparib (NSC756644), sotorasib (NSC818433), MRTX-1133 (NSC836407), SN-38 (NSC673596), topotecan (NSC609699), epotoside (NSC141540), doxorubicin (NSC123127), gemcitabine (NSC613327), 5-fluorouracil (NSC19893), paclitaxel (NSC125973), vemurafenib (NSC761431), MSA-2 (NSC828583), SN-011 (NSC837082), adavosertib (NSC754352), prexasertib (NSC758257), carboplatin (NSC241240) and oxaliplatin (NSC266046), were obtained from the National Cancer Institute (NCI) Developmental Therapeutics Program Chemical Repository (21). The FDA-approved anticancer drug set is available from the Developmental Therapeutics Program at https://dtp.cancer.gov/organization/dscb/obtaining/. […] The stock solutions were prepared in dimethyl sulfoxide (DMSO, Sigma-Aldrich, St. Louis, MO, cat. D2650), except for the platinum compounds which were prepared in saline (Quality Biological, Gaithersburg, MD, cat. 114-055-101), at 800-fold the tested concentration and stored at -70 degrees C prior to their use. All drugs and investigational agents were tested over a range starting from a high concentration at or near the clinical Cmax and decreasing in half-log increments. If the clinical Cmax for an agent had not been determined, the highest concentration tested was 10 microM, except for SN-38, which was tested at a high concentration of 1 microM.
Cell Culture. All cells were maintained in an incubator at 37 degrees C and 5% CO2 with 95% humidity. The PDC lines were cultured according to standard operating procedures established by the NCI PDMR (https://pdmr.cancer.gov). Table 3 of the manuscript, lists the cell lines along with the number of the three cell types plated to form the mct-spheroids and media for tumor cell growth. After thawing, all PDC lines, except 997537-175-T-J1-PDC and 415267-285-R-J2-PDC, were cultured in Matrigel-coated flasks prepared with a working solution of 1X Ham's F-12 nutrient mix, without supplementation (Thermo Fisher Scientific, cat. 11765054), 100 U/mL penicillin-streptomycin (Thermo Fisher Scientific, cat. 15140122), and 2.5% Matrigel (Corning Inc., Corning, NY, cat. 354248) for the first three passages. The two PDC lines 997537-175-T-J1-PDC and 415267-285-R-J2-PDC were cultured on uncoated flasks. The 857933-349-R-J2-PDC line was cultured in 6C/Colon 1B media containing advanced DMEM/F-12 (Thermo Fisher Scientific, cat. 12634028), 10 mM HEPES (Thermo Fisher Scientific, cat. 15630080), 1X GlutaMAX supplement (Thermo Fisher Scientific, cat. 35050061), 0.1 mg/mL primocin (InvivoGen, San Diego, CA, cat. ant-pm-2), 10% defined fetal bovine serum, heat inactivated (HyClone Laboratories Inc., Logan, UT, cat. SH30070.03HI), 50% L-WRN conditioned media (ATCC, cat. CRL-3276), 1.25 mM N-Acetyl-L-cysteine (Sigma-Aldrich, cat. A9165), 10 mM nicotinamide (Sigma-Aldrich, cat. N0636), 1X B-27 supplement (Thermo Fisher Scientific, cat. 17504044), 1X N-2 supplement (Thermo Fisher Scientific, cat. […]
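Also: spheroids exposed to compounds for one week before readout.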
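For viability, T/C in this document: percent viability relative to DMSO vehicle wells taken as 100%.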

CC[C@@]1(O)C(=O)OCc2c1cc1n(c2=O)Cc2cc3c(CN(C)C)c(O)ccc3nc2-1 + COC1C(OC(N)=O)C(O)C(Oc2ccc3c(O)c(NC(=O)c4ccc(O)c(CC=C(C)C)c4)c(=O)oc3c2C)OC1(C)C
IC50 (second compound 0.0316 µM): > 100 nM | IC50 (second compound 0.1 µM): > 100 nM | IC50 (second compound 0.316 µM): > 100 nM | IC50 (second compound 1 µM): > 100 nM | IC50 (second compound 3.16 µM): > 100 nM | IC50 (second compound 10 µM): > 100 nM | viability, T/C (second compound 0.0316 µM, first compound 0.000316 µM): 99.3% | viability, T/C (second compound 0.0316 µM, first compound 0.001 µM): 97.5% | viability, T/C (second compound 0.0316 µM, first compound 0.00316 µM): 104% | viability, T/C (second compound 0.0316 µM, first compound 0.01 µM): 97.6% | viability, T/C (second compound 0.0316 µM, first compound 0.0316 µM): 102% | viability, T/C (second compound 0.0316 µM, first compound 0.1 µM): 81.7% | viability, T/C (second compound 0.1 µM, first compound 0.000316 µM): 99.2% | viability, T/C (second compound 0.1 µM, first compound 0.001 µM): 112% | viability, T/C (second compound 0.1 µM, first compound 0.00316 µM): 99.5% | viability, T/C (second compound 0.1 µM, first compound 0.01 µM): 106% | viability, T/C (second compound 0.1 µM, first compound 0.0316 µM): 106% | viability, T/C (second compound 0.1 µM, first compound 0.1 µM): 78.6% | viability, T/C (second compound 0.316 µM, first compound 0.000316 µM): 103% | viability, T/C (second compound 0.316 µM, first compound 0.001 µM): 93.5% | viability, T/C (second compound 0.316 µM, first compound 0.00316 µM): 95.1% | viability, T/C (second compound 0.316 µM, first compound 0.01 µM): 105% | viability, T/C (second compound 0.316 µM, first compound 0.0316 µM): 110% | viability, T/C (second compound 0.316 µM, first compound 0.1 µM): 90.3% | viability, T/C (second compound 1 µM, first compound 0.000316 µM): 101% | viability, T/C (second compound 1 µM, first compound 0.001 µM): 98.8% | viability, T/C (second compound 1 µM, first compound 0.00316 µM): 98.5% | viability, T/C (second compound 1 µM, first compound 0.01 µM): 101% | viability, T/C (second compound 1 µM, first compound 0.0316 µM): 101% | viability, T/C (second compound 1 µM, first compound 0.1 µM): 75.5% | viability, T/C (second compound 3.16 µM, first compound 0.000316 µM): 95.3% | viability, T/C (second compound 3.16 µM, first compound 0.001 µM): 101% | viability, T/C (second compound 3.16 µM, first compound 0.00316 µM): 99.4% | viability, T/C (second compound 3.16 µM, first compound 0.01 µM): 100% | viability, T/C (second compound 3.16 µM, first compound 0.0316 µM): 101% | viability, T/C (second compound 3.16 µM, first compound 0.1 µM): 64.9% | viability, T/C (second compound 10 µM, first compound 0.000316 µM): 106% | viability, T/C (second compound 10 µM, first compound 0.001 µM): 99.5% | viability, T/C (second compound 10 µM, first compound 0.00316 µM): 96.2% | viability, T/C (second compound 10 µM, first compound 0.01 µM): 100% | viability, T/C (second compound 10 µM, first compound 0.0316 µM): 93.5% | viability, T/C (second compound 10 µM, first compound 0.1 µM): 58.8%
